From patent US20230235077A1, “MATERIALS AND METHODS OF TREATING CANCER” (THE GENERAL HOSPITAL CORPORATION, priority 2020, published 2023)

Legend:
D4M.3A melanoma cells = assay: D4M.3A melanoma in mice: interval versus continuous mepazine with anti-PD-1 (Example 1); type: in vivo; details: female C57BL/6 mice; mepazine 16 mg/kg i.p. daily on days 7-10 only versus continuously to day 19; with anti-PD-1 mAb 200 μg i.p. daily; FIG. 1
Protocol: Female C57BL/6 mice were implanted subcutaneously with 10^6 D4M.3A melanoma cells. Starting 7 days later (arrow), animals were treated with daily i.p. injections of 200 μg of anti-PD-1 mAbs (clone 29F.1A12) or isotype control mAb (rat IgG2a). Some animals in addition received daily i.p. injections of 16 mg/kg bodyweight of the allosteric MALT-1 inhibitor mepazine, either for the first 4 days (days 7-10) only, or continuously until the end of the experiment on day 19. Tumor size was measured using a caliper every 2-3 days. n=4/group. *=p<0.05 versus Ctrl.

D4M.3A syngeneic tumors [1] = assay: D4M.3A syngeneic tumor efficacy study: (S)-mepazine IP ×3, ×7 or QD with anti-PD1 (Example 6); type: in vivo, C57BL/6 mice
Protocol: Male C57BL/6 mice were implanted subcutaneously with D4M.3A syngeneic tumors. The mice were dosed with (S)-mepazine IP and with anti-PD1 mouse clone 29F.1A12 dosed 3 times 200 μg/dose at days 0, 2, and 4 of a treatment cycle. A ×3 arm of mice were dosed at days 0, 1, and 3 of a 21 day treatment cycle with (S)-mepazine IP. A ×7 arm of mice were dosed at days 0-6 of a 21 day treatment cycle with (S)-mepazine IP. A QD arm of mice were dosed daily with (S)-mepazine IP. Tumor volume was measured each day. The results of the study are shown in FIGS. 2 and 3, for ×3 arm and ×7 arm, respectively.

D4M.3A syngeneic tumors [2] = assay: D4M.3A syngeneic tumor efficacy study: (S)-mepazine PO 5 days on/5 days off or QD with anti-PD1 (Example 7); type: in vivo; details: male C57BL/6 mice; (S)-mepazine PO 5 days on and 5 days off versus each day; with anti-PD1 200 μg at days 0, 2, 4; FIG. 4
Protocol: Male C57BL/6 mice were implanted subcutaneously with D4M.3A syngeneic tumors. The mice were dosed with (S)-mepazine PO and with anti-PD1 mouse clone 29F.1A12 dosed 3 times 200 μg/dose at days 0, 2, and 4 of a treatment cycle. The mice were dosed 5 days on with (S)-mepazine and 5 days off (a dose holiday) (5+5) or each day with (S)-mepazine (QD) PO. Tumor volume was measured each day.

Row | Compound | Tumor size, interval versus continuous treatment (D4M.3A melanoma cells) | Tumor control of ×3 and ×7 arms versus QD dosing arm (D4M.3A syngeneic tumors [1]; (S)-mepazine IP with anti-PD1, up to 7 days after (S)-mepazine was dosed) | Tumor volume, activity against the tumor compared to anti-PD1 alone, ×3 arm (D4M.3A syngeneic tumors [1]; male C57BL/6 mice, (S)-mepazine IP on days 0, 1 and 3 of 21 day cycle, with anti-PD1 200 μg at days 0, 2, 4, FIG. 2) | Tumor volume, activity against the tumor compared to anti-PD1 alone, ×7 arm (D4M.3A syngeneic tumors [1]; male C57BL/6 mice, (S)-mepazine IP on days 0-6 of 21 day cycle, with anti-PD1 200 μg at days 0, 2, 4, FIG. 3) | Duration of efficacy for tumor control after (S)-mepazine was dosed (D4M.3A syngeneic tumors [1]; ×3 and ×7 arms, (S)-mepazine IP with anti-PD1, male C57BL/6 mice) | Tumor volume, 5+5 dosing versus QD dosing (D4M.3A syngeneic tumors [2])
1 | CN1CCCC(CN2c3ccccc3Sc3ccccc32)C1 (racemic) [mepazine] | at least as effective as continuous treatment | – | – | – | – | –
2 | CN1CCC[C@H](CN2c3ccccc3Sc3ccccc32)C1 [(S)-mepazine] | – | comparable to the QD dosing arm | improved activity against the tumor compared to anti-PD1 alone | improved activity against the tumor compared to anti-PD1 alone | up to 7 days | equivalent to a QD dosing schedule
